According to patent publication US9968587B2, “Heterocycle analogs of CAI-1 as agonists of quorum sensing in vibrio” (THE TRUSTEES OF PRINCETON UNIVERSITY, priority 2013, dated 2018):
Where two headings read alike, the source gives them in different places.

Assays:
[1] = tested on: HapR; experiment: Western blot analysis of HapR production; format: cell-based, Vibrio cholerae
Text: (§1) In vivo, HapR is a transcription factor that functions as one of two master QS regulators in V. cholerae. Agonism of CqsS leads to increased production of HapR and HapR, in turn, drives the high-cell density gene expression program, which leads to repression of the expression of genes required for virulence and biofilm formation. […] Conversely, production the major V. cholerae virulence factor, TcpA, (toxin-co-regulated pilis protein subunit A), is repressed by both CAI-1 and compound 18.
(§2) Overnight cultures of V. cholerae CqsA-LuxQ—were diluted 1000-fold in AKI medium containing the indicated compounds. The cultures were grown under static conditions at 37° C. for 4 h and then were shaken for 18 h at 37° C. Cells were collected by centrifugation, TcpA and HapR from different samples were analyzed by Western Blot as described in references.

[2] = tested on: TcpA; experiment: Western blot analysis of TcpA production; format: cell-based, Vibrio cholerae; conditions: FIG. 3, DMSO control
Text: as §1, §2

[3] = biological target: V. cholerae CqsS receptor (Vibrio cholerae serotype O1, UniProt Q9KM66); experiment: CqsS agonist bioassay (V. cholerae reporter strain MM920, bioluminescence); conditions: for EC50: mean of triplicate analyses; for QS agonist potency (in words) / level of QS activation (in words): CqsS agonist bioassay
Text: The molecules were bioassayed in a system that exploits the V. cholerae quorum sensing circuit. The bioassay used a bacterial reporter strain to measure the QS response. Values for percent of activation correspond to the level of bioluminescence produced in the bacterial reporter strain at saturating concentrations of molecule compared to the maximal levels produced in the presence of a native autoinducer molecule (Ea-CAI-1). […] The EC50 values correspond to the concentrations that are required to activate quorum sensing to its half-maximal level.
DMSO was used as the negative control.
EC50 values were calculated by Prism 5 using standard settings and are described in the Tables and text with the error representing the 95% confidence interval for the calculated EC50 value.
The values for % response described in the Tables and text describe the maximal luminescence change for each of the analogs as a percent of EaCAI-1 or 18 (set at 100%). One of these molecules was included as a positive standard of activity for each of the assays.

[4] = tested on: Vibrio cholerae strain MM920; experiment: Cytotoxicity of compound 18 in V. cholerae as assessed by OD600; conditions: FIG. 9, OD600
[5] = EC50, QS agonist activity, reporter strain MM920, 4-hour incubation at 30° C.
[6] = EC50, complete bioassay data, error = 95% confidence interval
[7] = read-out: % Response, Percent maximal bioluminescence with respect to Ea-CAI-1, which is set at 100%
[8] = read-out: % Response, complete bioassay data, percent maximal bioluminescence with respect to Ea-CAI-1 (100%), error = 95% confidence interval

Chain of V. cholerae CqsS receptor (Q9KM66 whole entry, looked up): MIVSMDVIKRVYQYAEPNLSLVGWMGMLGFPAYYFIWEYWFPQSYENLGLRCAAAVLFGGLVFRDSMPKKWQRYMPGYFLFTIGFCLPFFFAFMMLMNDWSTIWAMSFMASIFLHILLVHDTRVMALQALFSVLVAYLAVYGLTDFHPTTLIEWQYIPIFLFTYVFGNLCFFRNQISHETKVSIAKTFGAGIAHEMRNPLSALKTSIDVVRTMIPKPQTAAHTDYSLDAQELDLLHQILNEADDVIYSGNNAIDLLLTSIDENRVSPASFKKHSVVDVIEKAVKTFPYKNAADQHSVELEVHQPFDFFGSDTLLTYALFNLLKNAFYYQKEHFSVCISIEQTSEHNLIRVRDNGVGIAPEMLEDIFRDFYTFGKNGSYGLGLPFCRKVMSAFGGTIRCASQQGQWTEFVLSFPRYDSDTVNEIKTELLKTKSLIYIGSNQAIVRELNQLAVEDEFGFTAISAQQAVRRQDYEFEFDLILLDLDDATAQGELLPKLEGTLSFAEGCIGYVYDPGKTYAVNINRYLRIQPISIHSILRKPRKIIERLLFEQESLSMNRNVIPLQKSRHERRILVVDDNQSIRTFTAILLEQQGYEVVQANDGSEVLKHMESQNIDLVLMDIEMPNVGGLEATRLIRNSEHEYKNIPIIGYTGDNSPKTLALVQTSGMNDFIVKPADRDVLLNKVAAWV

SMILES | EC50 [3, 6] | Emax [3, 8] | QS agonist potency (in words) [3] | also measured
CCCCCCCCCC(=O)[C@@H](O)CC [CAI-1, (S)-3-hydroxytridecan-4-one] | – | – | – | production of HapR ([1]; 10 μM of CAI-1, FIG. 3, DMSO control): activate production of HapR; production of virulence factor TcpA [2]: repressed
C/C=C(\N)C(=O)CCCCC [Compound 6, (Z)-3-aminonon-2-en-4-one] | 0.594 ± 0.319 µM | 100 ± 57% | – | EC50 [3, 5]: 0.59 µM; Emax [3, 7]: 100%
C/C=C(\N)C(=O)CCCCCCC [Compound 8, (Z)-3-aminoundec-2-en-4-one] | – | 109 ± 25% | – | Emax [3, 7]: 109%
C/C=C(\N)C(=O)CCCCCCCC [Compound 9, (Z)-3-aminododec-2-en-4-one] | 0.0026 ± 0.00032 µM | 112 ± 7% | low nM activity | level of QS activation (in words) [3]: full activation; EC50 [3, 5]: 0.0026 µM; Emax [3, 7]: 112%
C/C=C(\N)C(=O)CCCCCCCCCCCC [Compound 11, (Z)-3-aminohexadec-2-en-4-one] | > 5 µM | 38% | much less active | EC50 [3, 5]: > 225 µM; Emax [3, 7]: 38%
CCCCCCCCCC(=O)c1ccc[nH]1 [Compound 17, 1-(1H-pyrrol-2-yl)decan-1-one] | 5.17 µM | 103 ± 91% | – | level of QS activation (in words) [3]: full level of QS response
CCCCCCCCCC(=O)c1cc[nH]c1 [Compound 18, 1-(1H-pyrrol-3-yl)decan-1-one] | – | – | – | production of HapR ([1]; 1 μM of 18, FIG. 3, DMSO control): increased; effect on bacterial growth (in words) [4]: does not inhibit bacterial growth; production of virulence factor TcpA [2]: repressed
CCCCCCCCCC(=O)c1cc(C)[nH]c1C [Compound 19, 1-(2,5-dimethyl-1H-pyrrol-3-yl)decan-1-one] | 0.679 ± 0.092 µM | 66 ± 14% | lower agonist activity | –
CCCCCCCCCC(=O)c1c(C)c[nH]c1C [Compound 20, 1(2,4-dimethyl-1H-pyrrol-3-yl)decan-1-one] | 0.536 ± 0.08 µM | 65 ± 16% | lower agonist activity | –
CCCCc1ccc(CCC(=O)c2cc[nH]c2)cc1 [Compound 26, 3-(4-butylphenyl)-1-(1H-pyrrol-3-yl)propan-1-one] | 0.0109 ± 0.0048 µM | 64 ± 42% | – | –
CCCCc1ccc(CCC(=O)c2ccc[nH]2)cc1 [Compound 27, 3-(4-butylphenyl)-1-(1H-pyrrol-2-yl)propan-1-one] | 2.02 ± 1.68 µM | 75 ± 45% | – | –
O=C(CCCCCCc1ccccc1)c1cc[nH]c1 [Compound 28, 7-phenyl-1-(1H-pyrrol-3-yl)heptan-1-one] | 0.0358 ± 0.0061 µM | 75 ± 10% | – | –
O=C(CCCCCCc1ccccc1)c1ccc[nH]1 [Compound 29, 7-phenyl-1-(1H-pyrrol-2-yl)heptan-1-one] | > 5 µM | 60% | – | –
CCCCc1ccc(/C=C/C(=O)c2cc[nH]c2)cc1 [Compound 30, 3-(4-butylphenyl)-1-(1H-pyrrol-3-yl)prop-2-en-1-one] | 0.0884 ± 0.0249 µM | 54 ± 29% | – | –
CCCCc1ccc(/C=C/C(=O)c2ccc[nH]2)cc1 [Compound 31, 3-(4-butylphenyl)-1-(1H-pyrrol-2-yl)prop-2-en-1-one] | 0.731 ± 0.686 µM | 45 ± 62% | – | –
CCCCCCC/C=C/C(=O)c1ccc[nH]1 [Compound 33, (E)-1-(1H-pyrrol-2-yl)dec-2-en-1-one] | 0.288 ± 0.092 µM | 109 ± 31% | – | –
O=C(Cc1ccc(-c2ccccc2)cc1)c1cc[nH]c1 [Compound 34, 2-([1,1′-biphenyl]-4-yl)-1-(1H-pyrrol-3-yl)ethanone] | > 5 µM | 25% | essentially inactive | –
O=C(Cc1ccc(-c2ccccc2)cc1)c1ccc[nH]1 [Compound 35, 2-([1,1′-biphenyl]-4-yl)-1-(1H-pyrrol-2-yl)ethanone] | > 5 µM | 26% | essentially inactive | –
C/C=C(\N)C(=O)CCCCCCCCC [Ea-CAI-1, (Z)-3-aminotridec-2-en-4-one, reference compound] | – | 100 ± 6.6% | low nM activity | level of QS activation (in words) [3]: full activation; EC50 [3, 5]: 0.0041 µM; Emax [3, 7]: 100%
